How the values were obtained:
barley cv. Boone = experiment: Test I safening of Compound 6 by Harmony Extra Herbicide, pre-/postemergence; format: in vivo, Hordeum vulgare
Experimental: This test evaluated the safening of Compound 6 on barley (Hordeum vulgare L.) cv. ‘Boone’ and wheat (Triticum aestivum L.) cv. ‘Recital’ by Harmony® Extra Herbicide, which comprises 50 wt % thifensulfuron-methyl and 25 wt % tribenuron-methyl. Barley and wheat seeds were planted in pots containing a pasteurized blend of Matapeake soil and sand. For postemergence testing the plants were grown 10 days so the barley seedlings were at the 2-leaf stage and the wheat seedlings were at the 2-3-leaf stage at time of treatment. Preemergence treatments were applied the day after the seeds were planted. Treatments were applied by spraying Compound 6 and/or […] in a non-phytotoxic solvent mixture, using flat fan nozzle and a spray volume of 280 L/ha. The treatments were triply replicated and the results subsequently averaged. The pots were placed on a greenhouse bench using a complete randomized block design except for the first replicate, which was unrandomized. The plants were grown in the greenhouse and watered as needed with a dilute nutrient solution containing 200 ppm of N. Illumination was daylight supplemented by artificial sources to maintain a photoperiod of 14 hours. The temperature was maintained at 23±2° C. during the day and 17±2° C. at night. The effects of the treatments were rated 25 days after preemergence treatment and 15 days after postemergence treatment. The plant response was visually rated in comparison to untreated controls using a scale of 0 to 100, with 0 representing no effect and 100 representing complete plant death.
Colby's Equation was used to calculate the expected additive herbicidal effect of the mixtures of Compound 6 with Harmony® Extra (i.e. a 2:1 mixture by weight of thifensulfuron-methyl and tribenuron-methyl). Colby's Equation (Colby, S. R. “Calculating Synergistic and Antagonistic Responses of Herbicide Combinations,” Weeds, 15(1), pp 20-22 (1967)) calculates the expected additive effect of herbicidal mixtures, and for two active ingredients is of the form: Pa+b=Pa+Pb−(PaPb/100) wherein • Pa+b is the percentage effect of the mixture expected from additive contribution of the individual components, • Pa is the observed percentage effect of the first active ingredient at the same use rate as in the mixture, and • Pb is the observed percentage effect of the second active ingredient at the same use rate as in the mixture.
The results and additive effects expected from Colby's Equation for the preemergence test are listed in Table I1, and the results and additive effects expected from Colby's Equation for the postemergence test are listed in Table I2.

[1] = test system: corn (maize) cv. Pioneer 33G26; experiment: Test G safening on corn by naphthalic anhydride seed treatment, preemergence; format: in vivo, Zea mays
Text: This test evaluated the safening of compounds of the invention on corn (maize; Zea mays L.) cv. ‘Pioneer 33G26’ by seed treatment with naphthalic anhydride (1,8-naphthalic anhydride). All corn seed had been first treated with fludioxonil and metaxyl applied at the manufacturer's recommended rate as per the Pioneer 33G26 label. Some of the corn seed were subsequently also treated with naphthalic anhydride as a 1% by weight seed dressing. The corn seed were planted in pots containing pasteurized Sassafras sandy loam soil, and then treatments were applied preemergence the same day. Treatments were applied by spraying the test compounds formulated in a non-phytotoxic solvent mixture, using a flat fan nozzle and a spray volume of 280 L/ha. The treatments were triply replicated and the results subsequently averaged. The pots were placed on a greenhouse bench using a complete randomized block design except for the first replicate, which was unrandomized. The plants were grown in the greenhouse and watered as needed with a dilute nutrient solution containing 200 ppm of N. Illumination was daylight supplemented by artificial sources to maintaining a photoperiod of 16 hours. The temperature was maintained at 28±2° C. during the day and 23±2° C. at night. The plant response was visually rated 25 days after treatment in comparison to untreated controls using a scale of 0 to 100, with 0 representing no effect and 100 representing complete plant death.

downy bromegrass [2] = experiment: Test A pre-/postemergence herbicide test; format: in vivo, Bromus tectorum; settings: Preemergence, visual rating, 0 to 100 scale (0 no effect, 100 complete control)
Text: Seeds of plant species selected from barnyardgrass (Echinochloa crus-galli (L.) Beauv.), downy bromegrass (Bromus tectorum L.), large crabgrass (Digitaria sanguinalis (L.) Scop.), giant foxtail (Setaria faberi Herrm.), morningglory (Ipomoea spp.), redroot pigweed (Amaranthus retroflexus L.) and velvetleaf (Abutilon theophrasti Medik.) were planted into a sandy loam soil and treated preemergence with a directed soil spray using test chemicals formulated in a non-phytotoxic solvent mixture which included a surfactant. At the same time plants selected from these species were also treated postemergence by spraying to runoff with test chemicals formulated.
Plants ranged in height from 2 to 10 cm and were in the one- to two-leaf stage for the postemergence treatment. Treated plants and untreated controls were maintained in a greenhouse for approximately ten days, after which time all treated plants were compared to untreated controls and visually evaluated for injury. Plant response ratings, summarized in Table A, are based on a 0 to 100 scale where 0 is no effect and 100 is complete control. A dash (-) response means no test results.

downy bromegrass [3] = experiment: Test F pre-/postemergence herbicide test; format: in vivo, Bromus tectorum
Text: Seeds of plant species selected from annual blugrass (Poa annua L.), blackgrass (Alopecurus myosuroides Huds.), catchweed bedstraw (Gallium aparine L.), common chickweed (Stellaria media (L.) Vill./Cyr.), downy bromegrass (Bromus tectorum L.), green foxtail (Setaria viridis (L.) Beauv.), Italian ryegrass (Lolium multiflorum Lam.), kochia (Kochia scoparia (L.). Schrad.), lambsquarters (Chenopodium album L.), littleseed canarygrass (Phalaris minor Retz.), pigweed (Amaranthus retroflexus L.), Russian thistle (Salsola kali L. ssp. Ruthenica (Iljin) Soo), wild buckwheat (Polygonum convolvulus L.), wild mustard (Sinapis arvensis L.), wild oat (Avena fatua L.), windgrass (Apera spica-venti (L.) Beauv.), winter barley (Hordeum vulgare L.), and wheat (Triticum aestivum L.) were planted and treated preemergence with test chemicals formulated in a non-phytotoxic solvent mixture which included a surfactant.
At the same time, plants selected from these crop and weed species were treated with postemergence applications of some of the test chemicals formulated in the same manner. Plants ranged in height from 2 to 18 cm (1- to 4-leaf stage) for postemergence treatments. Treated plants and controls were maintained in a greenhouse for 12 to 14 days, after which time all species were compared to controls and visually evaluated. Plant response ratings, summarized in Table F, are based on a scale of 0 to 100 where 0 is no effect and 100 is complete control. A dash (-) response means no test result.

CCn1nc(C(C)(C)C)cc1C(=O)Nc1cc(C(=O)N(C)C)ccc1F [Compound 6, N-[5-[(dimethylamino)carbonyl]-2-fluorophenyl]-3-(1,1-dimethylethyl)-1-ethyl-1H-pyrazole-5-carboxamide]
Barley Observed effect (barley cv. Boone; postemergence, Compound 6 16, thifensulfuron-methyl 0, tribenuron-methyl 0 g a.i./ha): 47 | Barley Observed effect (barley cv. Boone; postemergence, Compound 6 31, thifensulfuron-methyl 0, tribenuron-methyl 0 g a.i./ha): 73 | Barley Observed effect (barley cv. Boone; preemergence, Compound 6 16, thifensulfuron-methyl 0, tribenuron-methyl 0 g a.i./ha): 35 | Barley Observed effect (barley cv. Boone; preemergence, Compound 6 31, thifensulfuron-methyl 0, tribenuron-methyl 0 g a.i./ha): 68 | Response of corn, With 1% naphthalic anhydride seed treatment ([1]; 62 g a.i./ha): 60 | Response of corn, Without naphthalic anhydride seed treatment ([1]; 62 g a.i./ha): 65 | Response of corn, With 1% naphthalic anhydride seed treatment ([1]; 125 g a.i./ha): 62 | Response of corn, Without naphthalic anhydride seed treatment ([1]; 125 g a.i./ha): 68 | Response of corn, With 1% naphthalic anhydride seed treatment ([1]; 250 g a.i./ha): 78 | Response of corn, Without naphthalic anhydride seed treatment ([1]; 250 g a.i./ha): 88 | Response of corn, With 1% naphthalic anhydride seed treatment ([1]; 500 g a.i./ha): 70 | Response of corn, Without naphthalic anhydride seed treatment ([1]; 500 g a.i./ha): 92

CC(=NO)c1cccc(NC(=O)c2cc(C(C)(C)C)nn2C)c1 [Compound 102]
Bromegrass, Downy plant response rating (downy bromegrass [2]; 500 g ai/ha): 60 | Bromegrass, Downy plant response rating (downy bromegrass [2]; 2000 g ai/ha): 60

CCn1nc(C(C)(C)C)cc1C(=O)Nc1cc(C(=O)OC(C)C)c(F)cc1F [Compound 248]
Plant response rating (0-100), Bromegrass, Downy (downy bromegrass [3]; Postemergence, 31 g ai/ha): 40 | Plant response rating (0-100), Bromegrass, Downy (downy bromegrass [3]; Postemergence, 62 g ai/ha): 40 | Plant response rating (0-100), Bromegrass, Downy (downy bromegrass [3]; Postemergence, 125 g ai/ha): 40 | Plant response rating (0-100), Bromegrass, Downy (downy bromegrass [3]; Postemergence, 250 g ai/ha): 40 | Plant response rating (0-100), Bromegrass, Downy (downy bromegrass [3]; Preemergence, 31 g ai/ha): 35 | Plant response rating (0-100), Bromegrass, Downy (downy bromegrass [3]; Preemergence, 62 g ai/ha): 45 | Plant response rating (0-100), Bromegrass, Downy (downy bromegrass [3]; Preemergence, 125 g ai/ha): 50 | Plant response rating (0-100), Bromegrass, Downy (downy bromegrass [3]; Preemergence, 250 g ai/ha): 65
